Measurements published in patent US4431807A, “4-Methyl-5-(unsubstituted and substituted phenoxy)-6-methoxy-8-(aminoalkylamino)quinolines” (priority 1981, dated 1984).
Values joined by “and” are separate entries in the source; they are usually repeats but may differ in a detail not shown here. Identical values can stand only once. Like-named read-outs stand apart in the source and are kept apart here.

Assays:
[1] = system: Plasmodium cynomolgi; conditions: cited from earlier work
[2] = system: Plasmodium berghei; conditions: cited from earlier work
[3] = system: Plasmodium berghei; assay: Blood schizonticidal (suppressive) test, Rane mouse test, P. berghei; assay type: in vivo, Plasmodium berghei KBG 173 in ICR/HA Swiss mice; conditions: for Cures (60 days survival) / Suppressive activity (active/inactive) / Toxic: five mice; for Cures (60 days survival) / Extension of survival relative to controls / Suppressive activity (active/inactive) / Toxic: Table III
Description: Blood Schizonticidal Test (Mouse), University of Miami, Rane (Suppressive)
This system is based on comparisons of responses to test compounds by Plasmodium berghei KBG 173 malaria in mice as expressed in mean survival times and the mean survival times of untreated controls. Thus, compounds noted as active produce increases in the survival times of the treated animals that are significant when compared with the survival times of untreated controls. Since an established disease is less sensitive to treatment than a disease in the early stages of development, treatment is withheld until the parasitemia is relatively high in order to insure a more reliable assay of activity and the selection of appropriate compounds for intensive preclinical studies.
Utilizing young ICR/HA Swiss mice and a standard inoculum of Plasmodium berghei KBG 173, it is possible to produce a uniform disease fatal to 100% of untreated animals within 6 to 8 days with a mean survival time of 6.2 days. Test animals weigh from 18 to 22 grams but weight variations in any given experimental or control group are confined to 2-3 grams. All animals in any given test are approximately of the same age. Animals on test are housed in metal-topped plastic cages, given a standard laboratory diet and water ad libitum.
Test animals receive an intraperitoneal injection of 0.5 ml of 1:100 dilution of heparinized heart's blood with a minimum of 90% parasitized cells (4×10^7 cells), drawn from donor mice infected one week earlier with Plasmodium berghei. The donor stran is maintained by weekly passages in separate groups of mice inoculated with a 0.5 ml of 1:500 dilution of heparinized heart's blood.
Test compounds are administered after dissolution or suspension in peanut oil. A single dose is given subcutaneously 72 hours after the mice are infected with Plasmodium berghei. At this time a 10-15 percent parasitemia has developed; the disease is well established but has not produced sufficient debility to alter the response of the host to toxic effects of the drug on test. Since treatment is withheld for three days to permit the infection to become well established and death occurs in untreated controls within 6-8 days, it is believed that this system presents a candidate compound with the maximum challenge. In order to check factors such as changes in the infectivity of Plasmodium berghei or in the susceptibility of the host or to detect technical errors, a group of infected animals treated with pyrimethamine at dose levels producing definite increases in survival time is included as a positive control in every experiment.
In each experiment test compounds are administered in graded doses. […] However, if an active drug is toxic for the host, its toxicity may become a limiting factor; continued increases in dose levels also increase the toxic effects and may result in the diminution of survival times. Deaths prior to the sixth day, when untreated controls begin to die, are regarded as non-parasitic and become the basis for toxicity evaluations. Treated animals are kept under observation for 60 days. Survivors at the end of this period of time are considered as cured.
An increase of 100% in mean survival time is considered the minimum effective response for a candidate compound. In calculating mean survival time, toxic deaths and 60 day survivors are not included.
The antimalarial activity data acquired by the two test procedures described above are listed in Tables 2 and 3 for the compounds of this invention. In Table 4, the most promising compound of the series, compound 1, is compared directly with primaquine together with some additional test data for compound 1 compared to primaquine. In all the work reported herein primaquine is used in the form of the diphosphate salt. The test data are expressed in the form of the number of cures at a given dose level. […]

[4] = system: Plasmodium cynomolgi; assay: Radical curative (tissue schizonticidal) test, SEATO, P. cynomolgi, rhesus monkey; assay type: in vivo, Plasmodium cynomolgi (strain B) in Indian rhesus monkeys; conditions: for Molar Primaquine Index CD 100: primaquine CD100 dose / drug CD100 dose, in moles; for Radical curative activity relative to primaquine: in words
Experimental: Radical Curative Test in Rhesus Monkeys, SEATO Medical Research Laboratory, Bangkok, John Brown/Richard Andre
This test is designed to evaluate the tissue schizonticidal (radical curative) activity of test compounds. Well-conditioned Indian rhesus monkeys of either sex weighing 2-4 Kg are utilized. Plasmodium cynomolgi (strain B) sporozoites are prepared by grinding heavily infected Anopheles dirus salivary glands in 1:1 monkey serum-saline vehicle.
Monkeys are infected by I.V. injection of 10^6 freshly isolated P. cynomolgi sporozoites on day 0. A rapidly rising parasitemia develops after a 7-9 day prepatent period, and administration of the test drug is initiated when the rising parasite count exceeds 5000 per mm^3 (typically day 10-12). Test drugs are administered orally (by nasogastric intubation) once daily for 7 consecutive days in aqueous solution or, if insoluble, in suspension in 0.3% methylcellulose solution. Chloroquine diphosphate (3.1 mg/kg base/kg orally per day) is always administered concurrently with the test drug for 7 days to eliminate blood schizonts. Thus any tissue schizonticidal activity of the test drug will always be apparent even if it lacks blood schizonticidal activity.
A vehicle control monkey and a positive drug control (primaquine) monkey are included in each group of inoculated monkeys.
The effect of the test drug is determined by counting blood parasites. Parasite counts are made daily through day 20, and every two days thereafter. Initially a clearance of blood parasites is observed due to the blood schizonticidal action of chloroquine. […] If there is no relapse within 20 days of the initial clearance of parasitemia, the monkey is splenectomized and its parasitemia followed for an additional 30 days. If there is no relapse within this period, the experiment is terminated and the monkey is considered "cured".
Primaquine diphosphate cures over 90% of monkeys in this test system when administered at a dose of 1.3 mg/kg of salt per day for 7 days ([…]) in combination with chloroquine.
The antimalarial activity data acquired by the two test procedures described above are listed in Tables 2 and 3 for the compounds of this invention. In Table 4, the most promising compound of the series, compound 1, is compared directly with primaquine together with some additional test data for compound 1 compared to primaquine. In all the work reported herein primaquine is used in the form of the diphosphate salt. The test data are expressed in the form of the number of cures at a given dose level. Extension of life (mean survival time) relative to the controls is noted in the Rane mouse test; if the mean survival time is extended seven or more days, the compound is considered to be active.
The Molar Primaquine Index is useful in the radical curative test (Table II) as a gauge of the efficacy of a candidate drug relative to primaquine.

SMILES	Cures (60 days survival) ([3]; 20 mg/kg × 1, s.c.)	Cures (60 days survival) ([3]; 40 mg/kg × 1, s.c.)	Molar Primaquine Index CD 100 [4]	Cures (60 days survival) ([3]; 10 mg/kg × 1, s.c.)	Cures (60 days survival) ([3]; 80 mg/kg × 1, s.c.)	Cures (60 days survival) ([3]; 160 mg/kg × 1, s.c.)	Cures (60 days survival) ([3]; 320 mg/kg × 1, s.c.)	Toxic ([3]; 640 mg/kg × 1, s.c.)	Cures (60 days survival) ([3]; 640 mg/kg × 1, s.c.)	further results
COc1cc(NC(C)CCCN)c2nccc(C)c2c1 (centres unmarked) [4-Methylprimaquine, 4-methylprimaquine]	–	–	–	–	–	–	–	–	–	Radical curative activity ([1]; 0.316 mg/kg, prior art comparison): inactive; % cures (radical curative) ([1]; 1.0 mg/kg): 100%; Radical curative activity relative to primaquine ([1]; prior art compounds): comparable to primaquine and essentially equivalent in efficacy; Δ MST ([2]; 160 mg/kg, 5 mice, Table I): 9 days; Δ MST ([2]; 320 mg/kg, 5 mice, Table I): 10 days; Cures ([2]; 640 mg/kg, 5 mice, Table I): 3C; Toxic deaths ([2]; 640 mg/kg, 5 mice, Table I): 1T; Only curative (toxic) dose in suppressive test ([2]; curative only at the toxic dose): 640 mg/kg; Suppressive activity ([2]; non-toxic dose levels, prior art comparison): very weak activity
COc1cc(NCCCC(C)N)c2nccc(C)c2c1Oc1cccc(C(F)(F)F)c1 (centres unmarked) [Compound 2, 8-((4-Amino-1-pentyl)amino)-6-methoxy-4-methyl-5-(3-trifluoromethylphenoxy)-quinoline Hemisuccinate]	4C	5C	1.3	–	–	–	–	–	–	–
COc1cc(NCCCCC(C)N)c2nccc(C)c2c1Oc1cccc(C(F)(F)F)c1 (centres unmarked) [Compound 3, 8-((5-Amino-1-hexyl)amino)-6-methoxy-4-methyl-5-(3-trifluoromethylphenoxy)quinoline Hemisuccinate Hydrate]	5C	5C	1.3	3C	4C	4C	–	–	–	Extension of survival relative to controls ([3]; 5 mg/kg × 1, s.c.): 13 days; Suppressive activity (active/inactive) ([3]; 5 mg/kg × 1, s.c.): A (Active, 7 Days or more estension of survival relative to controls.)
CCC(CCCN)Nc1cc(OC)c(Oc2cccc(C(F)(F)F)c2)c2c(C)ccnc12.O=C(O)CCC(=O)O (centres unmarked) [Compound 4, 8-((4-Amino-1-ethylbutyl)amino)-6-methoxy-4-methyl-5-(3-trifluoromethylphenoxy)-quinoline Succinate]	5C	5C	1.3	3C	5C	5C	5C	–	–	Cures (60 days survival) ([3]; 640 mg/kg × 1, s.c., Succinate): 2C and 3C
COc1cc(NC(C)CCCNC(C)C)c2nccc(C)c2c1Oc1cccc(C(F)(F)F)c1.O=C(O)CCC(=O)O (centres unmarked) [Compound 5, 8-((4-Isopropylamino-1-methylbutyl)amino)-6-methoxy-4-methyl-5-(3-trifluoromethylphenoxy)quinoline Succinate]	–	–	1.3	–	–	–	–	4T	–	Suppressive activity ([3]; in words, Table 3): totally ineffective
COc1ccc(Oc2c(OC)cc(NC(C)CCCN)c3nccc(C)c23)cc1.O=P(O)(O)O (centres unmarked) [Compound 6, 8-((4-Amino-1-methylbutyl)amino)-6-methoxy-5-(4-methoxyphenoxy)-4-methylquinoline Phosphate]	1C	5C	4.6	–	5C	5C	5C	3T	2C	Extension of survival relative to controls ([3]; 10 mg/kg × 1, s.c.): 7 days; Suppressive activity (active/inactive) ([3]; 10 mg/kg × 1, s.c.): A (Active, 7 Days or more estension of survival relative to controls.); Radical curative activity relative to primaquine [4]: markedly superior to primaquine
COc1cc(NC(C)CCCN)c2nccc(C)c2c1Oc1ccc(Cl)c(Cl)c1.O=P(O)(O)O (centres unmarked) [Compound 7, 8-((4-Amino-1-methylbutyl)amino)-5-(3,4-dichlorophenoxy)-6-methoxy-4-methylquinoline Phosphate]	5C	5C	1.3	5C	5C	5C	5C	–	5C	Cures (60 days survival) ([3]; 5 mg/kg × 1, s.c.): 4C
COc1cc(NC(C)CCCN)c2nccc(C)c2c1Oc1ccc(Cl)cc1Cl (centres unmarked) [Compound 8, 8-((4-Amino-1-methylbutyl)amino))-5-(2,4-dichlorophenoxy)-6-methoxy-4-methylquinoline Phosphate]	5C	5C	1.3	1C	5C	5C	4C	2T	3C	Toxic ([3]; 320 mg/kg × 1, s.c.): 1T
COc1cc(NC(C)CCCN)c2nccc(C)c2c1Oc1ccc(F)cc1.O=P(O)(O)O (centres unmarked) [Compound 9, 8-((4-Amino-1-methylbutyl)amino)-5-(4-fluorophenoxy)-6-methoxy-4-methylquinoline Phosphate]	4C	5C	4.5	3C	5C	5C	4C	2T	3C	Extension of survival relative to controls ([3]; 5 mg/kg × 1, s.c.): 7 days; Suppressive activity (active/inactive) ([3]; 5 mg/kg × 1, s.c.): A (Active, 7 Days or more estension of survival relative to controls.); Toxic ([3]; 320 mg/kg × 1, s.c.): 1T; minimal effective dose ([3]; Plasmodium berghei, sc, single dose, read-out: Curative dose, suppressive test): 10 mg/kg; Toxicity in suppressive test ([3]; relative to compound 1): somewhat more toxic; Radical curative activity relative to primaquine [4]: markedly superior to primaquine
OC(c1cc(C(F)(F)F)nc2c(C(F)(F)F)cccc12)C1CCCCN1 (centres unmarked) [mefloquine]	–	–	–	–	–	–	–	–	–	Curative dose, Rane Test ([2]; newer clinical suppressive drug): 20 mg/kg
